{
  "source": "patent US5593964A",
  "about": "“Method of treating septic shock by preventing actin polymerization” (The George Washington University Medical Center, priority 1994, dated 1997)",
  "key": {"lethal endotoxin shock": {"test_system": "lethal endotoxin shock", "assay": "Survival of Swiss Webster mice following lethal endotoxin dose and Tβ4", "type": "in vivo", "experimental": "Swiss-Webster mice 4-6 weeks of age (20-25g) were housed 6 per cage. The mice were divided into 2 groups: endotoxic mice (endotoxin 60 mg/kg i.p. in acute treatment) and endotoxic mice treated with Tβ4, 5 minutes and 2, 4, 6, 8, 10, 12, 14, 16, 18, 20, 22, 24 hours post administration of the endotoxin. Survival was recorded 2 times a day for 7 days.\nSwiss-Webster mice 4-6 weeks of age (20-25g) were divided to the following 4 groups.\n1. Mice treated with a lethal dose of endotoxin (60 mg/kg).\n2. Mice treated with 60 mg/kg endotoxin followed by an injection of 100 μg Tβ4 (5 minutes post administration of endotoxin).\n3. Mice treated with 60 mg/kg endotoxin followed by 2 injections of 100 μg/Tβ4 (immediately following and 2 hours post administration of endotoxin).\n4. […]"}, "IL-1α": {"test_system": "IL-1α", "assay": "IL-1α serum levels after lethal endotoxin dose", "type": "in vivo, Swiss-Webster mice", "text": "(§1) Using the same methods and materials as in examples 1-3, the effect which Tβ4 has on blood levels of IL-1α, TNF-α, PAG, Txβ2 and 6-keto-PGF1 α, which are pathological mediators of endotoxin induced lethality, was studied."}, "PAF": {"test_system": "PAF", "assay": "PAF blood levels (plasma, serum) after lethal endotoxin dose", "type": "in vivo, Swiss-Webster mice", "conditions": "after a lethal dose of endotoxin", "text": "as §1"}, "Txβ2": {"test_system": "Txβ2", "assay": "Txβ2 plasma levels after lethal endotoxin dose", "type": "in vivo, Swiss-Webster mice", "text": "as §1"}, "6-keto-PGF1α": {"test_system": "6-keto-PGF1α", "assay": "6-keto-PGF1α plasma levels after lethal endotoxin dose", "type": "in vivo, Swiss-Webster mice", "conditions": "after a lethal dose of endotoxin", "text": "as §1"}, "TNF-α": {"test_system": "TNF-α", "assay": "TNF-α serum levels after lethal endotoxin dose", "type": "in vivo, Swiss-Webster mice", "text": "as §1"}, "[1]": {"conditions": "after a lethal dose of endotoxin"}, "[2]": {"conditions": "endotoxin 60 mg/kg + Tβ4 100 μg administered simultaneously, 1 hr"}, "[3]": {"conditions": "endotoxin 60 mg/kg + Tβ4 100 μg administered simultaneously, 3 hr"}},
  "data": [
    {"substance": "Thymosin β4 [Tβ4]", "values": [
      {"measurement": "activity on endotoxin lethality", "setting": "lethal endotoxin shock; 10 μg Tβ4", "value": "sometimes shown positive activity"},
      {"measurement": "protection against lethal endotoxin shock", "setting": "lethal endotoxin shock; Example 1, endotoxin 60 mg/kg i.p.", "value": "protected against lethal endotoxin shock"},
      {"measurement": "survival rate", "setting": "lethal endotoxin shock; Example 1, endotoxin 60 mg/kg i.p., Tβ4 5 minutes and 2 to 24 hours post endotoxin, survival recorded for 7 days", "value": "≤ 100", "unit": "%"},
      {"measurement": "survival rate", "setting": "lethal endotoxin shock; Example 2, endotoxin 60 mg/kg, Tβ4 administered 3 times post endotoxin", "value": 100, "unit": "%"},
      {"measurement": "Survival (No. mice alive)", "setting": "lethal endotoxin shock; Table I, endotoxin 60 mg/kg + Tβ4 100 μg 1x (5 min post endotoxin), 24 hrs, 7 mice at 0 hrs", "value": 4},
      {"measurement": "Survival (No. mice alive)", "setting": "lethal endotoxin shock; Table I, endotoxin 60 mg/kg + Tβ4 100 μg 2x (immediately and 2 hours post endotoxin), 24 hrs, 7 mice at 0 hrs", "value": 4},
      {"measurement": "Survival (No. mice alive)", "setting": "lethal endotoxin shock; Table I, endotoxin 60 mg/kg + Tβ4 100 μg 3x (immediately, 2 and 4 hours post endotoxin), 24 hrs, 7 mice at 0 hrs", "value": 7},
      {"measurement": "Survival (No. mice alive)", "setting": "lethal endotoxin shock; Table II, Tβ4 10 μg 3x immediately following, 2 and 4 hrs after endotoxin, 48 hrs, 8 mice at 0 hrs", "value": 6},
      {"measurement": "Survival (No. mice alive)", "setting": "lethal endotoxin shock; Table II, Tβ4 10 μg 3x immediately following, 2 and 4 hrs after endotoxin, 72 hrs, 8 mice at 0 hrs", "value": 6},
      {"measurement": "Survival (No. mice alive)", "setting": "lethal endotoxin shock; Table II, Tβ4 10 μg 3x immediately following, 2 and 4 hrs after endotoxin, 96 hrs, 8 mice at 0 hrs", "value": 6},
      {"measurement": "Survival (No. mice alive)", "setting": "lethal endotoxin shock; Table II, Tβ4 10 μg 3x immediately following, 2 and 4 hrs after endotoxin, 120 hrs, 8 mice at 0 hrs", "value": 6},
      {"measurement": "Survival (No. mice alive)", "setting": "lethal endotoxin shock; Table II, Tβ4 100 μg 3x at 2, 4 and 6 hrs after endotoxin, 48 hrs, 8 mice at 0 hrs", "value": 4},
      {"measurement": "Survival (No. mice alive)", "setting": "lethal endotoxin shock; Table II, Tβ4 100 μg 3x at 2, 4 and 6 hrs after endotoxin, 72 hrs, 8 mice at 0 hrs", "value": 4},
      {"measurement": "Survival (No. mice alive)", "setting": "lethal endotoxin shock; Table II, Tβ4 100 μg 3x at 2, 4 and 6 hrs after endotoxin, 96 hrs, 8 mice at 0 hrs", "value": 4},
      {"measurement": "Survival (No. mice alive)", "setting": "lethal endotoxin shock; Table II, Tβ4 100 μg 3x at 2, 4 and 6 hrs after endotoxin, 120 hrs, 8 mice at 0 hrs", "value": 4},
      {"measurement": "Survival (No. mice alive)", "setting": "lethal endotoxin shock; Table II, Tβ4 100 μg 3x immediately following, 2 and 4 hrs after endotoxin, 48 hrs, 8 mice at 0 hrs", "value": 8},
      {"measurement": "Survival (No. mice alive)", "setting": "lethal endotoxin shock; Table II, Tβ4 100 μg 3x immediately following, 2 and 4 hrs after endotoxin, 72 hrs, 8 mice at 0 hrs", "value": 8},
      {"measurement": "Survival (No. mice alive)", "setting": "lethal endotoxin shock; Table II, Tβ4 100 μg 3x immediately following, 2 and 4 hrs after endotoxin, 96 hrs, 8 mice at 0 hrs", "value": 8},
      {"measurement": "Survival (No. mice alive)", "setting": "lethal endotoxin shock; Table II, Tβ4 100 μg 3x immediately following, 2 and 4 hrs after endotoxin, 120 hrs, 8 mice at 0 hrs", "value": 8},
      {"measurement": "Survival (No. mice alive)", "setting": "lethal endotoxin shock; Table II, endotoxin 60 mg/kg + Tβ4 10 μg 3x immediately following, 2 and 4 hrs after endotoxin, 24 hrs, 8 mice at 0 hrs", "value": 8},
      {"measurement": "Survival (No. mice alive)", "setting": "lethal endotoxin shock; Table II, endotoxin 60 mg/kg + Tβ4 100 μg 3x at 2, 4 and 6 hrs after endotoxin, 24 hrs, 8 mice at 0 hrs", "value": 7},
      {"measurement": "Survival (No. mice alive)", "setting": "lethal endotoxin shock; Table II, endotoxin 60 mg/kg + Tβ4 100 μg 3x immediately following, 2 and 4 hrs after endotoxin, 24 hrs, 8 mice at 0 hrs", "value": 8},
      {"measurement": "Survival (No. mice alive)", "setting": "lethal endotoxin shock; Table III, Tβ4 10 μg 3x i.p., 48 hrs, 10 mice at 0 hrs", "value": 3},
      {"measurement": "Survival (No. mice alive)", "setting": "lethal endotoxin shock; Table III, Tβ4 10 μg 3x i.p., 72 hrs, 10 mice at 0 hrs", "value": 3},
      {"measurement": "Survival (No. mice alive)", "setting": "lethal endotoxin shock; Table III, Tβ4 10 μg 3x i.p., 96 hrs, 10 mice at 0 hrs", "value": 3},
      {"measurement": "Survival (No. mice alive)", "setting": "lethal endotoxin shock; Table III, Tβ4 10 μg 3x i.p., 5 days, 10 mice at 0 hrs", "value": 3},
      {"measurement": "Survival (No. mice alive)", "setting": "lethal endotoxin shock; Table III, Tβ4 10 μg 3x i.p., 6 days, 10 mice at 0 hrs", "value": 3},
      {"measurement": "Survival (No. mice alive)", "setting": "lethal endotoxin shock; Table III, Tβ4 20 μg 3x i.p., 48 hrs, 10 mice at 0 hrs", "value": 4},
      {"measurement": "Survival (No. mice alive)", "setting": "lethal endotoxin shock; Table III, Tβ4 20 μg 3x i.p., 72 hrs, 10 mice at 0 hrs", "value": 4},
      {"measurement": "Survival (No. mice alive)", "setting": "lethal endotoxin shock; Table III, Tβ4 20 μg 3x i.p., 96 hrs, 10 mice at 0 hrs", "value": 3},
      {"measurement": "Survival (No. mice alive)", "setting": "lethal endotoxin shock; Table III, Tβ4 20 μg 3x i.p., 5 days, 10 mice at 0 hrs", "value": 3},
      {"measurement": "Survival (No. mice alive)", "setting": "lethal endotoxin shock; Table III, Tβ4 20 μg 3x i.p., 6 days, 10 mice at 0 hrs", "value": 3},
      {"measurement": "Survival (No. mice alive)", "setting": "lethal endotoxin shock; Table III, Tβ4 50 μg 3x i.p., 48 hrs, 10 mice at 0 hrs", "value": 7},
      {"measurement": "Survival (No. mice alive)", "setting": "lethal endotoxin shock; Table III, Tβ4 50 μg 3x i.p., 72 hrs, 10 mice at 0 hrs", "value": 7},
      {"measurement": "Survival (No. mice alive)", "setting": "lethal endotoxin shock; Table III, Tβ4 50 μg 3x i.p., 96 hrs, 10 mice at 0 hrs", "value": 7},
      {"measurement": "Survival (No. mice alive)", "setting": "lethal endotoxin shock; Table III, Tβ4 50 μg 3x i.p., 5 days, 10 mice at 0 hrs", "value": 7},
      {"measurement": "Survival (No. mice alive)", "setting": "lethal endotoxin shock; Table III, Tβ4 50 μg 3x i.p., 6 days, 10 mice at 0 hrs", "value": 7},
      {"measurement": "Survival (No. mice alive)", "setting": "lethal endotoxin shock; Table III, endotoxin 60 mg/kg + Tβ4 10 μg 3x i.p. immediately following, 2 and 4 hrs after endotoxin, 24 hrs, 10 mice at 0 hrs", "value": 3},
      {"measurement": "Survival (No. mice alive)", "setting": "lethal endotoxin shock; Table III, endotoxin 60 mg/kg + Tβ4 20 μg 3x i.p. immediately following, 2 and 4 hrs after endotoxin, 24 hrs, 10 mice at 0 hrs", "value": 5},
      {"measurement": "Survival (No. mice alive)", "setting": "lethal endotoxin shock; Table III, endotoxin 60 mg/kg + Tβ4 50 μg 3x i.p. immediately following, 2 and 4 hrs after endotoxin, 24 hrs, 10 mice at 0 hrs", "value": 9},
      {"measurement": "survival of mice treated with endotoxin", "setting": "lethal endotoxin shock; Tβ4 20 μg administered three times", "value": "partially increased the survival"},
      {"measurement": "survival of mice treated with endotoxin", "setting": "lethal endotoxin shock; Tβ4 50 μg administered three times", "value": "partially increased the survival"},
      {"measurement": "effect on endotoxin toxicity", "setting": "lethal endotoxin shock; Tβ4 given immediately following, 2 and 4 hours after endotoxin treatment", "value": "protective effect"},
      {"measurement": "IL-1α (serum levels)", "setting": "IL-1α; [1]", "value": "decreased"},
      {"measurement": "IL-1α (serum levels)", "setting": "IL-1α; [2]", "value": "147,5 ± 15,1 pg/ml"},
      {"measurement": "IL-1α (serum levels)", "setting": "IL-1α; [3]", "value": "207,5 ± 19,3 pg/ml"},
      {"measurement": "PAF plasma levels", "setting": "PAF", "value": "decreased"},
      {"measurement": "Txβ2 (plasma levels)", "setting": "Txβ2; [1]", "value": "decreased"},
      {"measurement": "Txβ2 (plasma levels)", "setting": "Txβ2; endotoxin 60 mg/kg + Tβ4 100 μg administered simultaneously, 0.5 hr", "value": "209 ± 9,5 pg/ml"},
      {"measurement": "Txβ2 (plasma levels)", "setting": "Txβ2; [2]", "value": "607 ± 53", "unit": "pg/mL"},
      {"measurement": "Txβ2 (plasma levels)", "setting": "Txβ2; endotoxin 60 mg/kg + Tβ4 100 μg administered simultaneously, 2 hr", "value": "196 ± 18", "unit": "pg/mL"},
      {"measurement": "Txβ2 (plasma levels)", "setting": "Txβ2; [3]", "value": "112 ± 9", "unit": "pg/mL"},
      {"measurement": "6-keto-PGF1 α plasma levels", "setting": "6-keto-PGF1α", "value": "decreased"},
      {"measurement": "TNF-α (serum levels)", "setting": "TNF-α; [1]", "value": "decreased"},
      {"measurement": "TNF-α (serum levels)", "setting": "TNF-α; endotoxin 60 mg/kg + Tβ4 100 μg administered immediately after endotoxin, 1 hr", "value": 807, "unit": "pg/mL"},
      {"measurement": "TNF-α (serum levels)", "setting": "TNF-α; endotoxin 60 mg/kg + Tβ4 100 μg administered immediately after endotoxin, 3 hr", "value": 591, "unit": "pg/mL"},
      {"measurement": "TNF-α (serum levels)", "setting": "TNF-α; endotoxin 60 mg/kg + Tβ4 100 μg administered immediately after endotoxin, 5 hr", "value": 496, "unit": "pg/mL"}
    ]}
  ]
}
